The record followed here is US9561228B2 (Celgene Avilomics Research, Inc., priority 2013, dated 2017).

Usually GI50 stands for the concentration at which growth is held to half of that of the control. Read a low GI50 as more potent growth inhibition.

Experiment [1] concerns HT-29 cells (colorectal adenocarcinoma). Nature of the experiment: Inhibition of cancer cell proliferation, HT-29 (CellTiterGlo, 72 hours). It counts as cell-based. Conditions: Homo sapiens. The essentials: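 HT-29 cells seeded at 3000/well, then treated with 3-fold serial dilutions from a 5,000 nM two-fold solution in serum-free RPMI1640, untreated wells as control, for 72 h at 37° C. CellTiterGlo luminescence converted to cell number via a standard curve; GI50 from percent inhibition versus untreated growth.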
On the technique in general: Cellular ATP, detected with luciferase, serves as a proxy for viable cell number.

Experiment [2] has as its system HCT116 cells (colorectal carcinoma). Kind of experiment: Inhibition of cancer cell proliferation, HCT116 (CellTiterGlo, 72 hours). Type of experiment: cell-based. Conditions: Homo sapiens, HCT-116. In outline: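 3000 cells per well exposed to 3-fold serial compound dilutions from 5,000 nM (two-fold solution, stock level) for 72 hours at 37° C. CellTiterGlo luminescence converted to cell number via a standard curve; percent inhibition vs untreated wells, GI50 by curve fit.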

In the case of `C=CC(=O)Nc1cc(C)ccc1Nc1nc(Nc2cc(OC)cnc2Cl)ncc1C(F)(F)F` [Compound I-361, N-(2-((2-((2-chloro-5-methoxypyridin-3-yl)amino)-5-(trifluoromethyl)pyrimidin-4-yl)amino)-5-methylphenyl)acrylamide], the GI50 in experiment [1] is 101 to 500 nM; in experiment [2], 501 to 999 nM.

With `C=CC(=O)Nc1cc(C)ccc1Nc1nc(Nc2nc(OC)ncc2C(F)(F)F)ncc1C(F)(F)F` [Compound I-355, N-(2-((2-((2-methoxy-5-(trifluoromethyl)pyrimidin-4-yl)amino)-5-(trifluoromethyl)pyrimidin-4-yl)amino)-5-methylphenyl)acrylamide], the GI50 is 501 to 999 nM in experiment [1] and greater than 1000 nM in experiment [2].

Turning to `C=CC(=O)Nc1cc(C)ccc1Nc1nc(Nc2nc(OC)ncc2F)ncc1C(F)(F)F` [Compound I-357, N-(2-((2-((5-fluoro-2-methoxypyrimidin-4-yl)amino)-5-(trifluoromethyl)pyrimidin-4-yl)amino)-5-methylphenyl)acrylamide], the values for the concentration for 50% growth inhibition (GI50) in experiment [1] and in experiment [2] were less than 100 nM and 501 to 999 nM, respectively.

On to `C=CC(=O)Nc1cc(CN2CCN(C(C)=O)CC2)ccc1Nc1nc(Nc2cc(OC)ncc2C)ncc1C(F)(F)F` [Compound I-381, N-(5-((4-acetylpiperazin-1-yl)methyl)-2-((2-((2-methoxy-5-methylpyridin-4-yl)amino)-5-(trifluoromethyl)pyrimidin-4-yl)amino)phenyl)acrylamide], for which the GI50 in experiment [1] and in experiment [2] was 101 to 500 nM each time.

In the case of `C=CC(=O)Nc1cc(C)ccc1Nc1nc(Nc2nc(OC)ncc2Cl)ncc1C(F)(F)F` [Compound I-344, N-(2-((2-((5-chloro-2-methoxypyrimidin-4-yl)amino)-5-(trifluoromethyl)pyrimidin-4-yl)amino)-5-methylphenyl)acrylamide], the 50% growth inhibitory concentration (GI50) lay in the range of 101 to 500 nM in experiment [1] and 501 to 999 nM in experiment [2].

`C=CC(=O)Nc1cc(C)ccc1Nc1nc(Nc2nc(O)ncc2C)ncc1C(F)(F)F` [Compound I-364, N-(2-((2-((2-hydroxy-5-methylpyrimidin-4-yl)amino)-5-(trifluoromethyl)pyrimidin-4-yl)amino)-5-methylphenyl)acrylamide]: the GI50 in experiment [1] and in experiment [2] was 101 to 500 nM in each case.

As to `C=CC(=O)Nc1cc(C)ccc1Nc1nc(Nc2cc(OCCO)ncc2C)ncc1C(F)(F)F` [Compound I-376, N-(2-((2-((2-(2-hydroxyethoxy)-5-methylpyridin-4-yl)amino)-5-(trifluoromethyl)pyrimidin-4-yl)amino)-5-methylphenyl)acrylamide], the GI50 in experiment [1] is 101 to 500 nM; in experiment [2] it was 501 to 999 nM.

As to `C=CC(=O)Nc1cc(CCC(N)=O)ccc1Nc1nc(Nc2cc(OC)ncc2C)ncc1C(F)(F)F` [Compound I-400, N-(5-(3-amino-3-oxopropyl)-2-((2-((2-methoxy-5-methylpyridin-4-yl)amino)-5-(trifluoromethyl)pyrimidin-4-yl)amino)phenyl)acrylamide], the values for the GI50 in experiment [1] and in experiment [2] were 101 to 500 nM and 501 to 999 nM, respectively.

Take `C=CC(=O)Nc1ccccc1Nc1nc(Nc2cc(OC)nc(N3CCN(C(C)=O)CC3)c2)ncc1C(F)(F)F` [Compound I-92]: the 50% growth inhibitory concentration (GI50) in experiment [1] and in experiment [2] was less than 100 nM in each case.

Consider `C=CC(=O)Nc1cc(C)ccc1Nc1nc(Nc2nc(OC)ncc2OC)ncc1C(F)(F)F` [Compound I-349, N-(2-((2-((2,5-dimethoxypyrimidin-4-yl)amino)-5-(trifluoromethyl)pyrimidin-4-yl)amino)-5-methylphenyl)acrylamide], for which the GI50 in experiment [1] is 101 to 500 nM; in experiment [2], greater than 1000 nM.
